Experimental data: PubChem BioAssay AID816 (SRMLSC, 2007)
Calls of active or inactive are those of the source. No rule for the calls is given here.

Each compound was assayed on S. cerevisiae GAL1 promoter reporter activation counterscreen (assay: GAL1 promoter activators in yeast, artefact control for yeast lifespan extension project, S. cerevisiae (AID 816);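 also: yeast growth read after 24 h of incubation with compounds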).

| SMILES | EC50 |
| --- | --- |
| CCCCC1C(=O)CC[C@H]2[C@@H]1CC(=O)[C@@H]2C/C=C\CCCC(=O)O (some centres not stated) | > 40 µM (inactive) |
| Fc1cccc2sc(Nc3nnc(-c4ccccc4)o3)nc12 | > 40 µM (inactive) |
| O=C(/C=C/c1ccccc1)Nc1ncn[nH]1 | > 40 µM (inactive) |
| CC(=O)[C@H]1[C@H](c2cccc(Cl)c2)C(C#N)(C#N)[C@@H]2c3ccccc3C=CN21 | > 40 µM (inactive) |
| O=Cc1cccn1-c1sc2c(c1C(=O)O)CCCC2 | > 40 µM (inactive) |
| Cc1ccc2[nH]c3c(c2c1)CC/C(=C/c1ccccc1)C3=O | > 40 µM (inactive) |
| COC(=O)/C(=C/c1cn(C)c2ccccc12)[N+](=O)[O-] | > 40 µM (inactive) |
| Cc1cc(C)nc(SCc2cc(=O)c(OC(=O)c3ccco3)co2)n1 | > 40 µM (inactive) |
| CCCn1[nH]cc(SC)c(=O)c1=O | > 40 µM (inactive) |
| O=C1c2ccccc2C(=O)N1c1ncc(Cc2ccc(Cl)cc2)s1 | > 40 µM (inactive) |
| CC(c1ccccc1)N1CCn2c(nc3cc(NC(=O)c4cccs4)ccc32)C1 (configuration not stated) | > 40 µM (inactive) |
| O=C(CCN1CCCCCC1)Nc1ccc(F)cc1 | > 40 µM (inactive) |
| COc1ccc(-c2cc(C(F)(F)F)nc(S(C)(=O)=O)n2)cc1OC | > 40 µM (inactive) |
| CCOC(=O)CCCNC(=O)COc1ccccc1C#N | > 40 µM (inactive) |
| COc1ccccc1C(=O)Oc1cc(N)n(S(=O)(=O)c2ccc(C)cc2)n1 | > 40 µM (inactive) |
| Cc1ccc(/C=C2/C(=O)NC(=O)N(CCc3ccc(F)cc3)C2=O)o1 | > 40 µM (inactive) |
| O=C(N/N=C/c1ccc(F)cc1)c1c(O)c2ccccc2[nH]c1=O | > 40 µM (inactive) |
| COc1ccc(CNC(=O)c2c(O)c3cccc4c3n(c2=O)CCC4)cc1 | > 40 µM (inactive) |
| O=C1Nc2ccccc2C12OCC1(CO2)COC2(OC1)C(=O)Nc1ccccc12 (configuration not stated) | > 40 µM (inactive) |
| CC(=O)c1c(C)[nH]c(C(=O)OC2CCCCC2=O)c1C (configuration not stated) | > 40 µM (inactive) |
| COc1ccc(OC)c(C2C(C(C)=O)=C(O)C(=O)N2Cc2cccnc2)c1 (configuration not stated) | > 40 µM (inactive) |
| Cc1ccc(N(C(=O)CS(=O)CC(=O)Nc2ccc(F)cc2)C(C(=O)NC2CCCCC2)c2ccco2)cc1 (configuration not stated) | > 40 µM (inactive) |
| CCCCCC1CC1C(=O)N/N=C/c1ccc(N(C)C)cc1 (configuration not stated) | > 40 µM (inactive) |
| Nc1sc(-c2ccccc2)cc1C(=O)O | > 40 µM (inactive) |
| Cc1ccc(C(=O)/C=C\C(=O)c2ccc(C)cc2)cc1 | > 40 µM (inactive) |
| O=C1c2ccccc2C(=O)N1OCc1ccccc1 | > 40 µM (inactive) |

| SMILES | EC50 |
| --- | --- |
| CCSc1nnc(NC(=O)CSc2nc(C)cc(C)n2)s1 | > 40 µM (inactive) |
| CCc1c(C)c(C#N)c2nc3ccccc3n2c1Cl | > 40 µM (inactive) |
| COc1ccc(CN2CCN(C(=O)COc3cccc(C)c3)CC2)c(OC)c1 | > 40 µM (inactive) |
| CCCCn1c(=O)c2c(O)cc(=O)oc2c2ccccc21 | > 40 µM (inactive) |
| CCCCCC(=O)N1CCN(CCN=CC2=C(O)CC(c3ccc(OC)c(OC)c3)CC2=O)CC1 (configuration not stated) | > 40 µM (inactive) |
| C=C(C(=O)c1ccccc1)C(C)CC(=O)c1ccccc1 (configuration not stated) | > 40 µM (inactive) |
| COCCN(CCOC)S(=O)(=O)c1ccc(C(=O)Nc2sc3c(c2C(N)=O)CCCCC3)cc1 | > 40 µM (inactive) |
| CCCC(=O)C1C(=O)CC(CC(C)SCC)CC1=O (configuration not stated) | > 40 µM (inactive) |
| O=C1c2ccccc2NC(c2cnc3ccccc3n2)N1O (configuration not stated) | > 40 µM (inactive) |
| Cc1cc(C)c(S(=O)(=O)c2ccccc2)c(OC(=O)c2cc(F)c(F)cc2Cl)n1 | > 40 µM (inactive) |
| CC(=O)Nc1c(O)nc(SCc2ccccc2C#N)[nH]c1=O | > 40 µM (inactive) |
| CC1CCCCN1C(=S)Nc1ccc2nc3n(c(=O)c2c1)CCCCC3 (configuration not stated) | > 40 µM (inactive) |
| CCSc1ccccc1C(=O)n1nnc2ccccc21 | > 40 µM (inactive) |
| CCOC(=O)C1C(c2cccs2)NC(=O)N(C)C1(O)C(F)(F)F (configuration not stated) | > 40 µM (inactive) |
| CCC1C/C(=C\c2cccnc2)C(=O)/C(=C/c2cccnc2)C1 (configuration not stated) | > 40 µM (inactive) |
| CC(C)c1nnc(NC(=O)c2c(O)c3cccc4c3n(c2=O)CCC4)s1 | > 40 µM (inactive) |
| Cc1ccc(C(=O)OC2=CC(=O)CC(C)(C)C2)cc1 | > 40 µM (inactive) |
| CC1=NN(Cc2ccccc2)C(=O)C1C(c1ccccc1)C(C#N)C#N (configuration not stated) | > 40 µM (inactive) |
| COc1cc(/C=C/C(=O)c2c(O)cc(C)oc2=O)cc(OC)c1O | > 40 µM (inactive) |
| C=C(C(=O)c1ccccc1)C(C)C(=C)C(=O)c1ccccc1 | > 40 µM (inactive) |
| COC(=O)CSc1ncccc1-c1nc2ccccc2[nH]1 | > 40 µM (inactive) |
| N#Cc1c(-c2ccccc2)c(-c2ccccc2)nn(CC(=O)NNC(=O)Nc2ccccc2)c1=O | > 40 µM (inactive) |
| O=C1c2ccccc2C(=O)N1Cc1nc2ccccc2c(=O)n1-c1ccc(Br)cn1 | > 40 µM (inactive) |
| CCCCCOC(=O)CSc1nc2c(c(=O)[nH]c(=O)n2C)n1CCc1ccccc1 | > 40 µM (inactive) |
| CCCCC(c1nnnn1CC1CCCO1)N1CCN(c2nc3ccccc3s2)CC1 (configuration not stated) | > 40 µM (inactive) |
| Cc1c(O)c(S(=O)c2ccccc2)c(=O)n(-c2ccccc2)c1-c1ccccc1 (configuration not stated) | > 40 µM (inactive) |

| SMILES | EC50 |
| --- | --- |
| Cc1ccsc1C(=O)Nc1nnc(-c2ccco2)o1 | > 40 µM (inactive) |
| O=C(NC(=S)NNC(=O)c1ccccc1O)c1ccco1 | > 40 µM (inactive) |
| COc1cnc(-c2ccccn2)nc1Sc1cccc(Cl)c1 | > 40 µM (inactive) |
| O=C1c2ccccc2-c2onc3c(Oc4ccccc4)cc(O)c1c23 | > 40 µM (inactive) |
| CS(=O)(=O)c1nc(-c2cccs2)cc(C(F)(F)F)n1 | > 40 µM (inactive) |
| Cc1[nH]nc2nc3c(c(OC(=O)c4ccccc4)c12)c(=O)n(C)c(=O)n3C | > 40 µM (inactive) |
| Cc1cc(N2C(=O)CC(Cc3ccccc3)C2=O)no1 (configuration not stated) | > 40 µM (inactive) |
| CN1C(=O)NC(c2ccc(O)cc2)C(C(=O)c2cccs2)C1(O)C(F)(F)F (configuration not stated) | > 40 µM (inactive) |
| COn1c(SC2CCCCC2)nc2ccccc2c1=O | > 40 µM (inactive) |
| Cc1ccc(N2NC(=O)/C(=C\c3cc4c(cc3[N+](=O)[O-])OCO4)C2=O)cc1C | > 40 µM (inactive) |
| N#CSCC(=O)N1c2ccccc2CCc2ccccc21 | > 40 µM (inactive) |
| O=c1[nH]c2ccccc2nc1C(Cl)c1ccccc1 (configuration not stated) | > 40 µM (inactive) |
| COc1ccc(CCN2C(=O)C(O)=C(C(=O)c3ccco3)C2c2cccs2)cc1OC (configuration not stated) | > 40 µM (inactive) |
| CCOC(=O)COc1ccccc1/C=C\[N+](=O)[O-] | > 40 µM (inactive) |
| Oc1ccc2ccccc2c1/C=N/c1nccs1 | > 40 µM (inactive) |
| CCCCn1c(=O)c(C(=O)Nc2cnccn2)c(O)c2ccccc21 | > 40 µM (inactive) |
| CCOC(=O)CC1=NN(c2ccccc2)C(=O)/C1=C\c1ccc(OC)cc1OC | > 40 µM (inactive) |
| CN(C)C=C1C(=O)N(C2CCCCC2)C(=O)N(C2CCCCC2)C1=O | > 40 µM (inactive) |
| Oc1ccc(Br)cc1C=Nc1ccc2[nH]ncc2c1 | > 40 µM (inactive) |
| COc1cccc(/C=C2\C(=O)N(c3cccc(C)c3)C(=O)c3ccccc32)c1 | > 40 µM (inactive) |
| COc1ccc(NC(=S)N2CCN(CCN=CC3=C(O)CC(c4ccccc4)CC3=O)CC2)cc1 (configuration not stated) | > 40 µM (inactive) |
| O=C(N/N=C/c1ccccc1)c1c(O)c2ccccc2[nH]c1=O | > 40 µM (inactive) |
| O=c1c2[nH]c3ccccc3c2ncn1Cc1ccco1 | > 40 µM (inactive) |
| CCCC(=Nc1ccc(N)cc1)C1=C(O)C(C(=O)OC)C(C)(C)CC1=O (configuration not stated) | > 40 µM (inactive) |
| CC(C)c1ccc2occ(-c3nn[nH]n3)c(=O)c2c1 | > 40 µM (inactive) |
| CC(C)c1ccc(C2=C(O)c3ccccc3C(=O)C2=O)cc1 | > 40 µM (inactive) |

| SMILES | EC50 |
| --- | --- |
| Cc1nonc1NC(=O)CSc1nc(C2CCCCC2)nc2ccccc12 | > 40 µM (inactive) |
| Nn1c(-c2ccccn2)nnc1-c1ccccn1 | > 40 µM (inactive) |
| O=c1c(Cl)c(NCCCO)cnn1-c1nc2ccccc2[nH]1 | > 40 µM (inactive) |
| CCCCC(=Nc1ccccc1OC)C1=C(O)CC(c2ccccc2)CC1=O (configuration not stated) | > 40 µM (inactive) |
| O=C1CC(c2ccccc2)CC(O)=C1C=NCCN1CCOCC1 (configuration not stated) | > 40 µM (inactive) |
| COc1ccc2c(=O)c3c(=O)n(Cc4ccco4)c(-c4ccco4)nc3oc2c1 | > 40 µM (inactive) |
| CC(C)(C)C(=O)Cn1c(=N)n(Cc2ccccc2)c2ccccc21 | > 40 µM (inactive) |
| COc1ccc(N(C(=O)C(C)C)S(=O)(=O)c2ccc(Cl)cc2)cc1 | > 40 µM (inactive) |
| CC(C)n1c(=O)c2c(O)cc(=O)oc2c2ccccc21 | > 40 µM (inactive) |
| CC(C)Cn1c(=O)c(C(=O)Nc2cnccn2)c(O)c2ccccc21 | > 40 µM (inactive) |
| O=C1OC2(CCCCC2)OC(=O)C1=CNc1nc2ccccc2s1 | > 40 µM (inactive) |
| CCOC(=O)C1=C(N)OC2=C(C(=O)CCC2)C1c1sccc1C (configuration not stated) | > 40 µM (inactive) |
| CCCC(=Nc1ccccc1OC)C1=C(O)CC(c2ccccc2)CC1=O (configuration not stated) | > 40 µM (inactive) |
| Cc1ccc(/C(O)=C2\C(=O)C(=O)N(c3cc(C)on3)C2c2cccc(Cl)c2)cc1 (configuration not stated) | > 40 µM (inactive) |
| Cc1ccccc1OC(=O)n1c(=S)oc2cc(Cl)ccc21 | > 40 µM (inactive) |
| CCCn1c(SCC(=O)c2ccc3c(c2)NC(=O)CO3)nc2ccccc21 | > 40 µM (inactive) |
| CCCc1cc(=O)oc2cc(C)c(CN3CCCC3)c(O)c12 | > 40 µM (inactive) |
| Cc1nc2c(=O)n(C)c(=O)n(C)c2nc1Cl | > 40 µM (inactive) |
| Cc1n[nH]c(=O)n1-c1cccc(C(F)(F)F)c1 | > 40 µM (inactive) |
| CC(C)n1c(-c2ccccc2F)n[nH]c1=S | > 40 µM (inactive) |
| CCOC(=O)c1nnn(-c2nonc2N)c1CN1CCc2ccccc2C1 | > 40 µM (inactive) |
| COc1ccc(/C=C/C(=O)C2C(=O)C=C(C)OC2=O)cc1O (configuration not stated) | > 40 µM (inactive) |
| O=C(c1cnn2c(C(F)F)cc(C3CC3)nc12)N1CCCC1 | > 40 µM (inactive) |
| Cc1ccc(S(=O)(=O)Nc2ccccc2/C=N/c2nc3ccccc3n2C(C)C)cc1 | > 40 µM (inactive) |
